“And” between values parts separate entries of the source, which are not always exact repeats. Equal entries are not always repeated.
Key:
ONYX-015 = assay: XTT assay, protection from cytopathic effect of ONYX-015 in H1299 cells; format: cell-based, adenovirus; conditions: for Protection (%) Ave. / Protection (%): ONYX-015 MOI 10, H1299, 7 days; for Protection (%): single wells, dihydrate
Experimental: (§1) Cells frozen in liquid nitrogen were thawed in water bath at 37° C., seeded at T25 flask, and cultured at 70-90% sub-confluent monolayer. Cells were detached with trypsin, and prepared suspension at a concentration of 1.0×10^4 cells/ml.
(§2) Cells were seeded in 96 well-plate (100 μL/well, 1000 cells/well), then cultured with 5% CO2 at 37° C.
(§3) Viruses were diluted at MOI of 0.1 (OBP-401) or 10 (ONYX-015) in H1299. Medium in each well was removed, 50 μL of diluted virus solution was added to each well of the plate. 2 hours later, medium was aspirated and replaced with fresh medium containing 2% FCS and serially diluted CDV. Cells were incubated with 5% CO2 at 37° C. for 7 days after infection.
(§4) 100 μL of PBS, 50 μL of XTT labeling reagent, and 1 μL of ion coupling reagent per well of plate were mixed.
(§5) Medium in each well of plate was removed, and 150 μL of mixture prepared above was added to each well. Plate was incubated with 5% CO2 at 37° C. for 4 hours, and then calculated absorbance at 450 nm and 690 nm. Protection was determined by the formula below:
(§6) Protection(%)={OD(AdV(+):CDV(+))−OD(AdV(+):CDV(−))}/{OD(AdV(−):CDV(+))−OD(AdV(+):CDV(−))}×100.

[1] = XTT cell viability assay, CDV alone, H1299 cells; format: cell-based; conditions: human; H1299 cells, XTT; read-out: CC50, CDV concentration that reduce the relative cell viability to 50%
Experimental: as §1, §2
as §3, with “1 (OBP-301, OBP-202)” for “0.1 (OBP-401) or 10 (ONYX-015)”, “H1299 and 5 in A549 (PFU/cell).” for “H1299.”, “150” for “50”
as §3, §4
Medium in each well of plate was removed, and 150 μL of mixture prepared above was added to each well. Plate was incubated with 5% CO2 at 37° C. for 4 hours, and then calculated absorbance at 450 nm and 690 nm. Protection was determined by the formula below: […]

Telomelysin (OBP-301) [2] = assay: XTT assay, protection from cytopathic effect of Telomelysin in A549 cells; format: cell-based, adenovirus; conditions: for Protection (%) Ave. / Protection (%): Telomelysin MOI 5, A549, 7 days; for Protection (%): single wells, dihydrate
Experimental: as §1, §2
as §3, with “1 (OBP-301, OBP-202)” for “0.1 (OBP-401) or 10 (ONYX-015)”, “H1299 and 5 in A549 (PFU/cell).” for “H1299.”, “150” for “50”
as §4, §5, §6

Telomelysin (OBP-301) [3] = assay: Real-time quantitative PCR, viral E1A copy number, Telomelysin in H1299 cells; format: cell-based, adenovirus; conditions: for E1A copy number, % (relative to 0 μM) / E1A copy number/ng DNA: Telomelysin MOI 10, H1299, 24 hours
Experimental: Cells were seeded in 6-well plate (2 mL/well, 2×10^5 cells/well), and incubated with 5% CO2 at 37° C.
Viruses were diluted at a MOI of 10. Medium in each well was removed, 500 μL of diluted virus solution was added to each well of the plate. Plates were incubated with 5% CO2 at 37° C. for 2 hours with gently shaking every 15 minutes. Medium was aspirated, washed with PBS twice, and replaced with fresh medium containing 2% FCS and serially diluted CDV. Cells were incubated with 5% CO2 at 37° C. for 24 hours after infection.
Cells were detached with Trypsin-EDTA, and collected by centrifuging. Total DNA was extracted using QIAamp™ DNA Mini Kit according to manufacture's instructions with some modifications: addition of 20 μL of RNaseA in each sample when adding ProK. DNA was eluted by 50˜100 μL of D. W.
Concentration of DNA was determined by measuring O.D.260. Each DNA samples was diluted by D. W. at a concentration of 5 ng/μL.
Master-mix for E1A primer was prepared using LightCycler™ Faststart DNAMaster SYBR Green™ according to Table 1. Standard DNA was prepared by serially 10 times dilution of pCRII-E1A plasmid (1×10^9, 1×10^8, 1×10^7, 1×10^6, 1×10^5, 1×10^4, and 1×10^3 copies/μL). 2 μL of Sample or Standard DNA was and 18 μL of Master mix were added into capillaries (total volume was 20 μL per capillary).
Q-PCR was performed according to the program of Table 2 (LightCycler quicksystem 350S). Results obtained here were analyzed using LightCycler softwere.

For `Nc1ccn(C[C@@H](CO)OCP(=O)(O)O)c(=O)n1.O.O` [CDV, 1-[(S)-3-hydroxy-2-(phosphonomethoxy)propyl]cytosine dihydrate], the “Protection (%) Ave.” value (ONYX-015; CDV 0.01 μM) was −1.092%, the “Protection (%)” value (ONYX-015; CDV 0.01 μM) was −1.284% and −1.233% and −0.822% and −1.027% and the “Protection (%) Ave.” value (ONYX-015; CDV 0.06 μM) was −0.642%. The “Protection (%)” value (ONYX-015; CDV 0.06 μM) was −0.616% and −0.205% and 0.051% and −1.798%, the “Protection (%) Ave.” value (ONYX-015; CDV 0.32 μM) was 1.516% and the “Protection (%)” value (ONYX-015; CDV 0.32 μM) was 3.237% and 4.675% and −0.205% and −1.644%. For the same compound, the “Protection (%) Ave.” value (ONYX-015; CDV 1.6 μM) was 2.646%, the “Protection (%)” value (ONYX-015; CDV 1.6 μM) was 4.315% and 1.849% and −1.079% and 5.497% and the “Protection (%) Ave.” value (ONYX-015; CDV 8 μM) was 5.703%. The “Protection (%) Ave.” value (ONYX-015; CDV 40 μM) was 55.420%, the “Protection (%)” value (ONYX-015; CDV 40 μM) was 50.912% and 58.926% and 55.536% and 56.306% and the “Protection (%) Ave.” value (ONYX-015; CDV 200 μM) was 11.264%. For the same compound, the “Protection (%)” value (ONYX-015; CDV 200 μM) was 10.121% and 16.902% and 9.350% and 8.682%, the “Protection (%) Ave.” value (ONYX-015; CDV 1000 μM) was −0.783% and the “Protection (%)” value (ONYX-015; CDV 1000 μM) was −2.312% and −2.260% and −2.363% and 3.802%. The “cytopathic effect induced by ONYX-015” value (ONYX-015; H1299 cells, FIG. 2A) was “apparently inhibited”, the CC50 at 7 days [1] was 146 µM and the Telomelysin-mediated cytopathic effect (Telomelysin (OBP-301) [2]; A549 cells, FIG. 1A) was “apparently inhibited”. The “Protection (%) Ave.” value (Telomelysin (OBP-301) [2]; CDV 10 μM) was 1.376%, the “Protection (%)” value (Telomelysin (OBP-301) [2]; CDV 10 μM) was 1.991% and 0.387% and 1.136% and the “Protection (%) Ave.” value (Telomelysin (OBP-301) [2]; CDV 20 μM) was 7.535%. For the same compound, the “Protection (%)” value (Telomelysin (OBP-301) [2]; CDV 20 μM) was 7.548% and 4.342% and 7.388% and 10.862%, the “Protection (%) Ave.” value (Telomelysin (OBP-301) [2]; CDV 30 μM) was 40.094% and the “Protection (%)” value (Telomelysin (OBP-301) [2]; CDV 30 μM) was 41.269% and 33.413% and 44.208% and 41.483%. The “Protection (%) Ave.” value (Telomelysin (OBP-301) [2]; CDV 40 μM) was 56.713%, the “Protection (%)” value (Telomelysin (OBP-301) [2]; CDV 40 μM) was 61.951% and 52.118% and 53.881% and 58.904% and the “Protection (%) Ave.” value (Telomelysin (OBP-301) [2]; CDV 50 μM) was 61.202%. For the same compound, the “Protection (%)” value (Telomelysin (OBP-301) [2]; CDV 50 μM) was 69.539% and 54.148% and 62.592% and 58.530%, the “Protection (%) Ave.” value (Telomelysin (OBP-301) [2]; CDV 60 μM) was 67.295% and the “Protection (%)” value (Telomelysin (OBP-301) [2]; CDV 60 μM) was 68.310% and 63.768% and 66.440% and 70.661%. For the same compound, the “Protection (%) Ave.” value (Telomelysin (OBP-301) [2]; CDV 70 μM) was 62.538%, the “Protection (%)” value (Telomelysin (OBP-301) [2]; CDV 70 μM) was 66.226% and 58.424% and 61.844% and 63.661% and the “Protection (%) Ave.” value (Telomelysin (OBP-301) [2]; CDV 80 μM) was 56.740%. The “Protection (%)” value (Telomelysin (OBP-301) [2]; CDV 80 μM) was 54.790% and 51.637% and 59.279% and 61.256%, the “Protection (%) Ave.” value (Telomelysin (OBP-301) [2]; CDV 90 μM) was 49.806% and the “Protection (%)” value (Telomelysin (OBP-301) [2]; CDV 90 μM) was 51.423% and 50.514% and 50.942% and 46.346%. The “Protection (%) Ave.” value (Telomelysin (OBP-301) [2]; CDV 100 μM) was 38.090%, the “Protection (%)” value (Telomelysin (OBP-301) [2]; CDV 100 μM) was 33.948% and 41.590% and 36.834% and 39.987% and the EC50 (Telomelysin (OBP-301) [2]; Telomelysin, A549 cells, XTT, read-out: EC50, CDV concentration that archive the protection to 50%) was 35.9 µM. The “E1A copy number, % (relative to 0 μM)” value (Telomelysin (OBP-301) [3]; CDV 0.16 μM) was 97.60%, the “E1A copy number/ng DNA” value (Telomelysin (OBP-301) [3]; CDV 0.16 μM) was 1.461E+08 copy number/ng DNA and the “E1A copy number, % (relative to 0 μM)” value (Telomelysin (OBP-301) [3]; CDV 0.8 μM) was 98.93%. The “E1A copy number/ng DNA” value (Telomelysin (OBP-301) [3]; CDV 0.8 μM) was 1.481E+08 copy number/ng DNA, the “E1A copy number, % (relative to 0 μM)” value (Telomelysin (OBP-301) [3]; CDV 4 μM) was 91.32% and the “E1A copy number/ng DNA” value (Telomelysin (OBP-301) [3]; CDV 4 μM) was 1.367E+08 copy number/ng DNA. For the same compound, the “E1A copy number, % (relative to 0 μM)” value (Telomelysin (OBP-301) [3]; CDV 20 μM) was 47.07%, the “E1A copy number/ng DNA” value (Telomelysin (OBP-301) [3]; CDV 20 μM) was 7.046E+07 copy number/ng DNA and the “E1A copy number, % (relative to 0 μM)” value (Telomelysin (OBP-301) [3]; CDV 100 μM) was 9.99%. The “E1A copy number/ng DNA” value (Telomelysin (OBP-301) [3]; CDV 100 μM) was 1.496E+07 copy number/ng DNA, the EC50 (Telomelysin (OBP-301) [3]; NCI-H1299, H1299 cells, real-time quantitative PCR, read-out: EC50 (E1A), CDV concentration that reduces the relative E1A copy number of Telomelysin to 50%) was 19.6 µM and the “Viral E1A copy number” value (Telomelysin (OBP-301) [3]; Telomelysin, H1299 cells, dose-dependent manner) was “reduced”.

Source: patent US20090181931A1, “ANTIVIRAL ACTIVITY OF CIDOFOVIR AGAINST ONCOLYTIC VIRUSES” (priority 2008, published 2009)
